What was measured:
[1] = target: norepinephrine uptake site (norepinephrine transporter), rat forebrain membranes (Rattus norvegicus, UniProt Q9WTR4); conditions: comparison of Table 1 Ki values
Protocol: Reactions were carried out in 50 mM TRIS-HCl (pH 7.4), containing 300 mM NaCl and 5 mM KCl at 0° C. to 4 ° C for 4 hours. The reaction was terminated by rapid vacuum filtration onto glass fiber filters. Radioactivity trapped in the filters was determined and compared to control values in order to ascertain the interactions of the test compound with the norepinephrine uptake site.

[2] = target: T1, serotonin transporter binding site, rat forebrain membranes (Rattus norvegicus, UniProt P31652); test: Serotonin Transporter Binding Assay ([3H]-citalopram); conditions: comparison of Table 2 Ki values
T1 construct: The receptor source was rat forebrain membranes; from tissue; host or cells: rat forebrain membranes
T1 sequence (P31652 whole entry): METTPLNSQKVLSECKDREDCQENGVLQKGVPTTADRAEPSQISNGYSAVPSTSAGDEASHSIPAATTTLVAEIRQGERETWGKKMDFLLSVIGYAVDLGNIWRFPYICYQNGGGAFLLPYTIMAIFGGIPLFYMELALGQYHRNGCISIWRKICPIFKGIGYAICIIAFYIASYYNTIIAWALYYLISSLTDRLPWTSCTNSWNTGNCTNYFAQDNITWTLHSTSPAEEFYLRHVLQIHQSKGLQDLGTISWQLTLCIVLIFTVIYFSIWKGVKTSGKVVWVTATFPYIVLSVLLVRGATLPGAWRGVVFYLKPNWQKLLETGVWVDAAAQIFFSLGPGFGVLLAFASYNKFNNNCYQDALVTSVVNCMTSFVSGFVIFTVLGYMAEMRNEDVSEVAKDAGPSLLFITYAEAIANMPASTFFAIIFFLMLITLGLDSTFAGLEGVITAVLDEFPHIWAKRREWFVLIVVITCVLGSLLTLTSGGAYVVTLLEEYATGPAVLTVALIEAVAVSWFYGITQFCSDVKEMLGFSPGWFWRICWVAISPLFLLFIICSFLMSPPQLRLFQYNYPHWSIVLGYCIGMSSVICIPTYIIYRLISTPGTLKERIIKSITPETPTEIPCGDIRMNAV
Protocol: Reactions were carried out in 50 mM TRIS-HCl (pH 7.4) containing 120 mM NaCl and 5 mM KCl at 25° C. for 60 minutes. The reaction was terminated by rapid vacuum filtration onto glass fiber filters. Radioactivity trapped in the filters was determined using liquid scintillation spectrometry and compared to control values in order to ascertain any interactions of test compound with the serotonin transporter binding site.

Chain of norepinephrine uptake site (norepinephrine transporter), rat forebrain membranes (Q9WTR4 1-597): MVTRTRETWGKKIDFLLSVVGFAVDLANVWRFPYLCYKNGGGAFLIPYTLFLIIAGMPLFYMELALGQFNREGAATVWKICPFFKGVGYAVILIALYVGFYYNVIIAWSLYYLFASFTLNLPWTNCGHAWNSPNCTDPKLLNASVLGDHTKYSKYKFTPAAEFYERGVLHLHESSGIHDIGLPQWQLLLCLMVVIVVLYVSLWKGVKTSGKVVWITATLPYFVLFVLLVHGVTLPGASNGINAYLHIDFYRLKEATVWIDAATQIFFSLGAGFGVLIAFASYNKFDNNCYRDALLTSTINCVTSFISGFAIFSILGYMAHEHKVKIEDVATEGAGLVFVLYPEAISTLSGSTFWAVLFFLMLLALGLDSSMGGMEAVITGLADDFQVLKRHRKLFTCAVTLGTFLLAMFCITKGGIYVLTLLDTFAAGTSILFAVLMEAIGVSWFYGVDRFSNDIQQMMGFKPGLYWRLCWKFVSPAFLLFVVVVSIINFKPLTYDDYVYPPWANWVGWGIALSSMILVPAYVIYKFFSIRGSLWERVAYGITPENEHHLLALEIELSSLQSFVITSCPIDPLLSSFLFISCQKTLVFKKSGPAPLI

Cl.Clc1ccc([C@@]23CNC[C@@H]2C3)cc1Cl (single isomer, unassigned) [(+)-1-(3,4-dichlorophenyl)-3-azabicyclo[3.1.0]hexane hydrochloride]
affinity for the norepinephrine uptake site compared with (±)-1-(3,4-dichlorophenyl)-3-azabicyclo[3.1.0]hexane HCl [1]: significantly greater affinity
affinity for the serotonin uptake site compared with (±)-1-(3,4-dichlorophenyl)-3-azabicyclo[3.1.0]hexane HCl [2]: significantly greater affinity
